Test results published in the NIST ThermoML archive (doi:10.1007/s10765-010-0719-7).

What was measured:
[1] = xn = mol fraction of the nth substance listed; conditions: 101 kPa, Liquid; for mass density: Pycnometric method
[2] = refractive index (Na D-line) (dimensionless); xn = mol fraction of the nth substance listed; conditions: 303.15 K, 101 kPa, Liquid, Standard Abbe refractometry
[3] = refractive index (Na D-line) (dimensionless); conditions: 303.15 K; 101.33 kPa; Liquid; Standard Abbe refractometry
[4] = 101 kPa, Liquid; for mass density: Pycnometric method

COCCO [2-methoxyethan-1-ol] + CC(C)CCO
[1], x2 = 0
Conditions	mass density [kg/m3]	speed of sound [m/s]	viscosity [mPa·s]
303.15 K	956.8	1324.3	1.55
313.15 K	946.3	–	1.288
323.15 K	937.8	–	1.082

Conditions	refractive index
[2], x2 = 0	1.3983

CC(C)CCO [3-methylbutan-1-ol] + CCCCOCCO
[1], x1 = 1
Conditions	mass density [kg/m3]	speed of sound [m/s]	viscosity [mPa·s]
303.15 K	803.1	1197.4	3.262
313.15 K	796.4	–	2.441
323.15 K	789.8	–	1.94

Conditions	refractive index
[2], x1 = 1	1.4035

CC(C)CCO [3-methylbutan-1-ol] + CCOCCO
[1], x1 = 1
Conditions	mass density [kg/m3]	speed of sound [m/s]	viscosity [mPa·s]
303.15 K	803.1	1197.4	3.262
313.15 K	796.4	–	2.441
323.15 K	789.8	–	1.94

Conditions	refractive index
[2], x1 = 1	1.4035

CC(C)CCO [3-methylbutan-1-ol] + COCCO
[1]
Conditions	mass density, 303.15 K [kg/m3]	mass density, 313.15 K [kg/m3]	mass density, 323.15 K [kg/m3]	speed of sound, 303.15 K [m/s]	viscosity, 303.15 K [mPa·s]	viscosity, 313.15 K [mPa·s]	viscosity, 323.15 K [mPa·s]
x1 = 0.0875	938.3	928.2	919.8	1312.1	1.578	1.312	1.111
x1 = 0.1775	920.5	910.8	902.8	1299.2	1.611	1.341	1.153
x1 = 0.2701	903.2	893.9	885.9	1287.4	1.652	1.376	1.169
x1 = 0.3653	886.7	877.6	870	1274.8	1.749	1.432	1.192
x1 = 0.4633	870.8	862.2	854.7	1261.2	1.82	1.482	1.224
x1 = 0.5643	855.8	847.6	840.1	1248.8	1.934	1.554	1.28
x1 = 0.6683	841.5	833.6	826.3	1235.7	2.119	1.667	1.355
x1 = 0.7754	827.8	820.5	813.2	1223.3	2.354	1.834	1.481
x1 = 0.886	815.1	808.1	801.1	1210.5	2.715	2.06	1.671
x1 = 1	803.1	796.4	789.8	1197.4	3.262	2.441	1.94

[2]
Conditions	refractive index
x1 = 0.0875	1.3988
x1 = 0.1775	1.3993
x1 = 0.2701	1.3999
x1 = 0.3653	1.4004
x1 = 0.4633	1.4009
x1 = 0.5643	1.4014
x1 = 0.6683	1.402
x1 = 0.7754	1.4025
x1 = 0.886	1.403
x1 = 1	1.4035

CCOCCO [2-ethoxyethan-1-ol]
Conditions	refractive index
[3]	1.4065

[4]
Conditions	mass density [kg/m3]	speed of sound [m/s]	viscosity [mPa·s]
303.15 K	919.5	1301.5	1.623
313.15 K	912	–	1.355
323.15 K	903.8	–	1.143
